Experimental data: patent US7074789B2, “Kinase inhibitors” (Amgen Inc., priority 1999, dated 2006)

Legend:
Type in all cases: biochemical
Flt-1 = molecular target: T1, Flt-1 (Homo sapiens, UniProt P17948); assay: Kinase inhibition assay (33P transfer), Flt-1
T1 construct: Kinases are expressed as either kinase domains or full length constructs; made in house
How it was run: (§1)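 Activity read as 33P incorporation from ATP into poly(Glu,Tyr) 4:1 or poly(Arg,Ser) 3:1 substrate bound to microtiter plates, measured by scintillation after acid washing. Enzymes were affinity-purified GST or polyHis fusions (kinase domain or full length) from E. coli or baculovirus; IC50 = 50% reduction in labelled phosphate.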

ErbB2 = molecular target: T2, ErbB2 (Homo sapiens, UniProt P04626); assay: Kinase inhibition assay (33P transfer), ErbB2; details: read-out: ErbB2-2
T2 construct: Kinases are expressed as either kinase domains or full length constructs; made in house
How it was run: as §1

AKT = molecular target: T3, AKT (Homo sapiens, UniProt Q9Y243); assay: Kinase inhibition assay (33P transfer), AKT; details: Table 2, kinase inhibition class; read-out: AKT3-1
T3 construct: Kinases are expressed as either kinase domains or full length constructs; made in house
How it was run: (§2)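 Enzyme activity is taken as the amount of 33PO4 moved from ATP onto poly(Glu, Tyr) 4:1 or poly(Arg, Ser) 3:1 fixed to the plate surface. Unbound label is removed with 0.5% phosphoric acid before scintillation counting.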

PDGFRB = molecular target: T4, PDGFRB (Homo sapiens, UniProt P09619); assay: Kinase inhibition assay (33P transfer), PDGFRB; details: read-out: PDGFRB-1
T4 construct: Kinases are expressed as either kinase domains or full length constructs; made in house

Tek = molecular target: T5, Tek (Homo sapiens, UniProt Q02763); assay: Kinase inhibition assay (33P transfer), Tek; details: read-out: Tek-1
T5 construct: Kinases are expressed as either kinase domains or full length constructs; made in house
How it was run: as §1

Ret-1 = molecular target: T6, Ret-1 (Homo sapiens, UniProt P07949); assay: Kinase inhibition assay (33P transfer), Ret; details: Table 6, Ret-1 kinase inhibition class
T6 construct: Kinases are expressed as either kinase domains or full length constructs; made in house

Lyn = molecular target: T7, Lyn (Homo sapiens, UniProt P07948); assay: Kinase inhibition assay (33P transfer), Lyn; details: Table 6, Lyn-1 kinase inhibition class
T7 construct: Kinases are expressed as either kinase domains or full length constructs; made in house
How it was run: as §1

Kdr = molecular target: T8, Kdr (Homo sapiens, UniProt P35968); assay: Kinase inhibition assay (33P transfer), Kdr; details: Table 3; read-out: KDR-1
T8 construct: Kinases are expressed as either kinase domains or full length constructs; made in house
How it was run: as §2

FGFR1 = molecular target: T9, FGFR1 (Homo sapiens, UniProt P11362); assay: Kinase inhibition assay (33P transfer), FGFR1; details: read-out: FGFR1-1
T9 construct: Kinases are expressed as either kinase domains or full length constructs; made in house

Zap-70 = molecular target: T10, Zap-70 (Homo sapiens, UniProt P43403); assay: Kinase inhibition assay (33P transfer), Zap-70; details: Table 3; read-out: Zap-1
T10 construct: Kinases are expressed as either kinase domains or full length constructs; made in house
T10 sequence (P43403 1-619): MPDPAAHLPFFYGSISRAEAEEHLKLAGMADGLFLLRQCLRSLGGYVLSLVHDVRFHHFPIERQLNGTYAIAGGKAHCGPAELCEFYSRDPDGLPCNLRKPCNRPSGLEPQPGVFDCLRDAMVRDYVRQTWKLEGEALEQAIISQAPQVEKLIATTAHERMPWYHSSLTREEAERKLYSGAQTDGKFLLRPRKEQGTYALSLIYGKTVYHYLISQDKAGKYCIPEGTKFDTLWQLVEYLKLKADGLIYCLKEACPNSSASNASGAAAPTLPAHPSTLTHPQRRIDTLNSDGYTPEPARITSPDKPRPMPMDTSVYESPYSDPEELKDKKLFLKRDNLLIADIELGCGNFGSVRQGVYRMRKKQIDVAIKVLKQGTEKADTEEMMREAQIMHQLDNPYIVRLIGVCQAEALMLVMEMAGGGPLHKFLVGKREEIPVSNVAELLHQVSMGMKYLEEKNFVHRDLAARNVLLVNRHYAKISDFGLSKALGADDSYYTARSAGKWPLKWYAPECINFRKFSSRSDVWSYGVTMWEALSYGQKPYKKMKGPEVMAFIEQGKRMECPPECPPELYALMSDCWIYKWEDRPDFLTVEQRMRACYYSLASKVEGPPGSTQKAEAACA
How it was run: as §2

Lck = molecular target: T11, Lck (Homo sapiens, UniProt P06239); assay: Kinase inhibition assay (33P transfer), Lck; details: Table 3; read-out: Lck-1
T11 construct: Kinases are expressed as either kinase domains or full length constructs; made in house
How it was run: as §2

T6 sequence (P07949 29-1114): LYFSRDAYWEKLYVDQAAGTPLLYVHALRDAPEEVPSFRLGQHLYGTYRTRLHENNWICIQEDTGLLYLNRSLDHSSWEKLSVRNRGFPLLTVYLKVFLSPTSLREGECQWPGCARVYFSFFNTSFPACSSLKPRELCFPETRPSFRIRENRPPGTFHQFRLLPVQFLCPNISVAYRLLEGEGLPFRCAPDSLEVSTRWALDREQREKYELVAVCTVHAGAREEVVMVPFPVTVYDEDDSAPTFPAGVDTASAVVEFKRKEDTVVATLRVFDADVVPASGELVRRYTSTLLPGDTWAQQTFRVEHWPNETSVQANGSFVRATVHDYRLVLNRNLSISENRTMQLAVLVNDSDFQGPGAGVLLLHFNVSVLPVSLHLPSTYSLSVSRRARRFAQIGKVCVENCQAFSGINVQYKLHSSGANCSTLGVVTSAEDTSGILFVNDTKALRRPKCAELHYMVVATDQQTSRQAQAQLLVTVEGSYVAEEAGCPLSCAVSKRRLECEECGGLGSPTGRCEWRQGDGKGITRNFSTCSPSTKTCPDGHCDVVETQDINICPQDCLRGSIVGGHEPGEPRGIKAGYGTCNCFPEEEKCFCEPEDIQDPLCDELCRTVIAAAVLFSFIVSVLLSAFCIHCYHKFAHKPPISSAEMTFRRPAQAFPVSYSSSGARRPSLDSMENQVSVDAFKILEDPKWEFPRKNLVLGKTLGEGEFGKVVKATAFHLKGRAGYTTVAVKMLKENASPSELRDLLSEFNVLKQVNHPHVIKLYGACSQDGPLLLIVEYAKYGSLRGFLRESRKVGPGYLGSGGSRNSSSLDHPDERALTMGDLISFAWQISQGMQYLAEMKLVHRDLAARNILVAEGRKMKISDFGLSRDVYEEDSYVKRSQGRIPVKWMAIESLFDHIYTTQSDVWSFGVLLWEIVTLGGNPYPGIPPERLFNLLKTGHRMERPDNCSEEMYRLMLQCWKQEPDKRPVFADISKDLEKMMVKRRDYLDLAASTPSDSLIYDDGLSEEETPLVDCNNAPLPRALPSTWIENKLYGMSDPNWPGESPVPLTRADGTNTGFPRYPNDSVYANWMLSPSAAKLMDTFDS
T4 sequence (P09619 33-1106, species assumed): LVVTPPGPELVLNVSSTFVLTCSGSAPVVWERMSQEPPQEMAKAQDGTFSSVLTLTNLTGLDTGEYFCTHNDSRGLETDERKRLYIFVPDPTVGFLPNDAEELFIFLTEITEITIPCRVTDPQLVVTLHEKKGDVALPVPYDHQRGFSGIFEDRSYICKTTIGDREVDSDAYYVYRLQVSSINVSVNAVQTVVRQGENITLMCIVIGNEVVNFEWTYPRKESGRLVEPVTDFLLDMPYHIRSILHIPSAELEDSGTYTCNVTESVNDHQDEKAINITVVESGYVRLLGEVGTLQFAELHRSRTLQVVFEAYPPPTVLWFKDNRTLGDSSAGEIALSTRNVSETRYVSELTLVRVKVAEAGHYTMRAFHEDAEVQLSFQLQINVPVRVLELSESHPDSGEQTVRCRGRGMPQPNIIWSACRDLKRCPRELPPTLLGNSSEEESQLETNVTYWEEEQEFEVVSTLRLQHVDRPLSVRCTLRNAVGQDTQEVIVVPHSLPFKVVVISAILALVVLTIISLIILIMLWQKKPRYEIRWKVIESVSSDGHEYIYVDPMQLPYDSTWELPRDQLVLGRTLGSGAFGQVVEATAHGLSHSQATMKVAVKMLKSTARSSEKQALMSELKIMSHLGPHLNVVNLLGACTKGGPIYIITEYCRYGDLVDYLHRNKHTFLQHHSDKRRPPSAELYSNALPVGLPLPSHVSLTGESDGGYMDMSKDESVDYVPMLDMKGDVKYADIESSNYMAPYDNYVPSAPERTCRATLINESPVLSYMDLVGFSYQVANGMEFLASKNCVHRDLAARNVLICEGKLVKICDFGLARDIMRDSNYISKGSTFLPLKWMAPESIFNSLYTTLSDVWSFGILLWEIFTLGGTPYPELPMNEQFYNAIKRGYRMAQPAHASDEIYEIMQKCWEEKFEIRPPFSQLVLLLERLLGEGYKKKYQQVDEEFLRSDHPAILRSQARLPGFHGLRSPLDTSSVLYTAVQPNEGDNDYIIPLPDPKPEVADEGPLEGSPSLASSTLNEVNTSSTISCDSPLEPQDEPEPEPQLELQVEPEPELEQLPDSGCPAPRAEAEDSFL
T2 sequence (P04626 23-1255, species assumed): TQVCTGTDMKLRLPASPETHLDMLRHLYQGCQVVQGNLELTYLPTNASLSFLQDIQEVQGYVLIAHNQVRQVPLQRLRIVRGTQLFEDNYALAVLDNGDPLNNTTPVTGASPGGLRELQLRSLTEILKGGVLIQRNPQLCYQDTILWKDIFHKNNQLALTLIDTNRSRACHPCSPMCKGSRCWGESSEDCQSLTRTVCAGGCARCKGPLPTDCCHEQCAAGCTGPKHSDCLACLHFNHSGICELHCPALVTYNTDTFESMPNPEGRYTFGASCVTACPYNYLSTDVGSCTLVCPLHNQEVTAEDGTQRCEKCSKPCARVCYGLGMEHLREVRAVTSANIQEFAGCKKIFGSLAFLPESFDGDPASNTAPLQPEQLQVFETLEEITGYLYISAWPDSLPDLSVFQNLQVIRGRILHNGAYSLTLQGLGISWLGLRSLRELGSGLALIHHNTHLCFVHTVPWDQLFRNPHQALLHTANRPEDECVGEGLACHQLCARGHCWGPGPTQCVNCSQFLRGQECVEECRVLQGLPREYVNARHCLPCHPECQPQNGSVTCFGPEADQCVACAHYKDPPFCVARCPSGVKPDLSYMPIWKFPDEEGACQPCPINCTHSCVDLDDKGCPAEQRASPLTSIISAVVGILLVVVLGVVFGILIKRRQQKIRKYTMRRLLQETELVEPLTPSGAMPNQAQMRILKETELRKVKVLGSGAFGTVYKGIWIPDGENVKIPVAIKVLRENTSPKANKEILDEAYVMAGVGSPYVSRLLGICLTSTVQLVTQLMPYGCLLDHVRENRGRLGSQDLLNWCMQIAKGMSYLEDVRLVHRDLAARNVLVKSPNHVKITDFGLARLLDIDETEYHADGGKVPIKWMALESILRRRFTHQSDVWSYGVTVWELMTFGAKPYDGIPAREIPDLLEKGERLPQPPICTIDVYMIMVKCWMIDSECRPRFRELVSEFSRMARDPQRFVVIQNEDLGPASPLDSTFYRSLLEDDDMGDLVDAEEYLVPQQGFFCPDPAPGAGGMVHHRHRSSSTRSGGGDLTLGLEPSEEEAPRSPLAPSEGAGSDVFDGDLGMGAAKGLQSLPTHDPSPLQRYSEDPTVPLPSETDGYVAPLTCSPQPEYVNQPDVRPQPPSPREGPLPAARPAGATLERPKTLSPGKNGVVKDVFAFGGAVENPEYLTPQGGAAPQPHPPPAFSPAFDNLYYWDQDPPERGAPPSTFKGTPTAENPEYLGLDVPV
T7 sequence (P07948 whole entry, species assumed, the tested form may be a part): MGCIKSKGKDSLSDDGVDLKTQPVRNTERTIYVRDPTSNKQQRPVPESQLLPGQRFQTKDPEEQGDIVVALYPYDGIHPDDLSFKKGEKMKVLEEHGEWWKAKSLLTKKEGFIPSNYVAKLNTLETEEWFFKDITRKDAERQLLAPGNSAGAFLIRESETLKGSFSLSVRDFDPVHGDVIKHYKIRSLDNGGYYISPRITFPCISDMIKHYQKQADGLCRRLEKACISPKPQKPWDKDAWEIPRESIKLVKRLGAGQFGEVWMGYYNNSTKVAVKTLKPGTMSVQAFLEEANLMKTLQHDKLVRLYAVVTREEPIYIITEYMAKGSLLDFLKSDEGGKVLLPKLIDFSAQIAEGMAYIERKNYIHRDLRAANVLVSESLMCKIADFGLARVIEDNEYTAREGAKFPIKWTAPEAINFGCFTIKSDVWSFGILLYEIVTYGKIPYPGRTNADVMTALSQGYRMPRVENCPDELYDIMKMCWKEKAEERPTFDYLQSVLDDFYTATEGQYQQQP
T9 sequence (P11362 22-822, species assumed): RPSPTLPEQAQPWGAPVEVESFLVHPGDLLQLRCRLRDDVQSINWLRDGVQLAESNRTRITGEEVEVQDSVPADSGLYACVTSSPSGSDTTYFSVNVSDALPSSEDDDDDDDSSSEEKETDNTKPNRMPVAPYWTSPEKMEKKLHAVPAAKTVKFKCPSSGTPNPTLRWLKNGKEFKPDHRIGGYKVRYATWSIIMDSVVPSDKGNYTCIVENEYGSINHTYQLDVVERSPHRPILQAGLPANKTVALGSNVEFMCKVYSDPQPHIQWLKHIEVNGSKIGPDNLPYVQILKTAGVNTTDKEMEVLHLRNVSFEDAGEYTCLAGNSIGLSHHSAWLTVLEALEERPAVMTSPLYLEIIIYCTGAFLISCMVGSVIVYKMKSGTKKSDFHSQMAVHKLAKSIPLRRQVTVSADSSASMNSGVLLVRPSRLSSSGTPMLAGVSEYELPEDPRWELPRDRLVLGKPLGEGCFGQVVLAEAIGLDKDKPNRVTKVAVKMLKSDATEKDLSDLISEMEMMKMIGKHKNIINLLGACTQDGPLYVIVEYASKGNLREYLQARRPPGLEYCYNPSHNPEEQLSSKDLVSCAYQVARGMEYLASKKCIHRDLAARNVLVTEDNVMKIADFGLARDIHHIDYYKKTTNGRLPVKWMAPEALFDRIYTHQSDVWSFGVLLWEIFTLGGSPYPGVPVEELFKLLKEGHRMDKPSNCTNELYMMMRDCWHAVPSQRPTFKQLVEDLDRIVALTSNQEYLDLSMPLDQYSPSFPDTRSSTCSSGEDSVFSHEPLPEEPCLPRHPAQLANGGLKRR

Compound `Cc1cccc(Nc2ncnc(Nc3ccc4[nH]ccc4c3)n2)c1` [Compound 110] has an IC50 (Flt-1) of under 1.26 µM, an IC50 (ErbB2) of under 1.26 µM and an IC50 (AKT) of over 14.2 µM. It also gave an IC50 (PDGFRB) of under 1.26 µM, an IC50 (Tek) of over 14.2 µM and an IC50 (Ret-1) of 1.26 to 7.59 µM. It also gave an IC50 (Lyn) of under 1.26 µM, an IC50 (Kdr) of under 1.26 µM and an IC50 (FGFR1) of under 1.26 µM. It also gave an IC50 (Zap-70) of over 14.2 µM and an IC50 (Lck) of 1.26 to 7.59 µM.

With `Cc1cccc(Nc2ncnc(Nc3ccc4[nH]ncc4c3)n2)c1` [Compound 120] the IC50 (Flt-1) was 1.26 to 7.56 µM, the IC50 (ErbB2) was 1.26 to 7.56 µM and the IC50 (AKT) was 7.56 to 11 µM. It also gave an IC50 (PDGFRB) of under 1.26 µM, an IC50 (Tek) of 7.56 to 11 µM and an IC50 (Ret-1) of under 1.26 µM. The IC50 (Lyn) was under 1.26 µM, the IC50 (Kdr) was 1.26 to 7.56 µM and the IC50 (FGFR1) was 1.26 to 7.56 µM. It also gave an IC50 (Zap-70) of 11 to 14.2 µM and an IC50 (Lck) of 11 to 14.2 µM.

Compound `COc1cc(Nc2ncnc(Nc3cccc(Cl)c3)n2)cc(OC)c1OC` [Compound 135] has an IC50 (Flt-1) of over 11.6 µM, an IC50 (ErbB2) of under 1.03 µM and an IC50 (AKT) of over 11.6 µM. It also gave an IC50 (PDGFRB) of under 1.03 µM, an IC50 (Tek) of 6.19 to 9.02 µM and an IC50 (Ret-1) of 1.03 to 6.19 µM. For the same compound, the IC50 (Lyn) was under 1.03 µM, the IC50 (Kdr) was under 1.03 µM and the IC50 (FGFR1) was 1.03 to 6.19 µM. The IC50 (Zap-70) was 9.02 to 11.6 µM and the IC50 (Lck) was 1.03 to 6.19 µM.

`COc1cc(Nc2ncnc(Nc3ccc(OCc4ccccc4)cc3)n2)cc(OC)c1` [Compound 156] showed an IC50 (Flt-1) of 5.59 to 8.15 µM, an IC50 (ErbB2) of 0.931 to 5.59 µM and an IC50 (AKT) of over 10.5 µM. It also gave an IC50 (PDGFRB) of 8.15 to 10.5 µM, an IC50 (Tek) of over 10.5 µM and an IC50 (Ret-1) of over 10.5 µM. It also gave an IC50 (Lyn) of 5.59 to 8.15 µM, an IC50 (Kdr) of 5.59 to 8.15 µM and an IC50 (FGFR1) of 0.931 to 5.59 µM. The IC50 (Zap-70) was over 10.5 µM and the IC50 (Lck) was 8.15 to 10.5 µM.

`COc1cc(Nc2ncnc(Nc3ccc4c(ccn4Cc4ccccc4)c3)n2)cc(OC)c1OC` [Compound 178] showed an IC50 (Flt-1) of 7.25 to 9.33 µM, an IC50 (ErbB2) of under 0.829 µM and an IC50 (AKT) of 7.25 to 9.33 µM. The IC50 (PDGFRB) was 4.97 to 7.25 µM, the IC50 (Tek) was 4.97 to 7.25 µM and the IC50 (Ret-1) was 4.97 to 7.25 µM. For the same compound, the IC50 (Lyn) was under 0.829 µM, the IC50 (Kdr) was 0.829 to 4.97 µM and the IC50 (FGFR1) was 7.25 to 9.33 µM. It also gave an IC50 (Zap-70) of 0.829 to 4.97 µM and an IC50 (Lck) of 0.829 to 4.97 µM.

`COc1cc(Nc2ncnc(-n3ccc4ccccc43)n2)cc(OC)c1OC` [Compound 185] showed an IC50 (Flt-1) of 1.06 to 6.36 µM, an IC50 (ErbB2) of over 11.9 µM and an IC50 (AKT) of over 11.9 µM. It also gave an IC50 (PDGFRB) of under 1.06 µM, an IC50 (Tek) of over 11.9 µM and an IC50 (Ret-1) of over 11.9 µM. For the same compound, the IC50 (Lyn) was over 11.9 µM, the IC50 (Kdr) was under 1.06 µM and the IC50 (FGFR1) was over 11.9 µM. For the same compound, the IC50 (Zap-70) was over 11.9 µM and the IC50 (Lck) was 6.36 to 9.27 µM.

`COc1ccc(Nc2ncnc(-n3c(N)nc4ccccc43)n2)cc1OC` [Compound 285] was tested, and the IC50 (Flt-1) was over 12.4 µM, the IC50 (ErbB2) was over 12.4 µM and the IC50 (AKT) was over 12.4 µM. The IC50 (PDGFRB) was over 12.4 µM, the IC50 (Tek) was over 12.4 µM and the IC50 (Ret-1) was 6.6 to 9.63 µM. The IC50 (Lyn) was over 12.4 µM, the IC50 (Kdr) was under 1.1 µM and the IC50 (FGFR1) was 9.63 to 12.4 µM. For the same compound, the IC50 (Zap-70) was over 12.4 µM and the IC50 (Lck) was 1.1 to 6.6 µM.

With `COc1cc(Nc2ncnc(Nc3cccc(F)c3)n2)cc(OC)c1OC` [Compound 304] the IC50 (Flt-1) was 1.08 to 6.46 µM, the IC50 (ErbB2) was 1.08 to 6.46 µM and the IC50 (AKT) was over 12.1 µM. For the same compound, the IC50 (PDGFRB) was under 1.08 µM, the IC50 (Tek) was over 12.1 µM and the IC50 (Ret-1) was under 1.08 µM. For the same compound, the IC50 (Lyn) was under 1.08 µM, the IC50 (Kdr) was under 1.08 µM and the IC50 (FGFR1) was 1.08 to 6.46 µM. It also gave an IC50 (Zap-70) of over 12.1 µM and an IC50 (Lck) of under 1.08 µM.

Work on `COCCOc1ccc(Nc2ncnc(Nc3ccc4[nH]ccc4c3)n2)cc1OCCOC` [Compound 321] yielded an IC50 (Flt-1) of over 9.99 µM, an IC50 (ErbB2) of 0.888 to 5.33 µM and an IC50 (AKT) of over 9.99 µM. It also gave an IC50 (PDGFRB) of 0.888 to 5.33 µM, an IC50 (Tek) of over 9.99 µM and an IC50 (Ret-1) of 0.888 to 5.33 µM. The IC50 (Lyn) was under 0.888 µM, the IC50 (Kdr) was under 0.888 µM and the IC50 (FGFR1) was over 9.99 µM. The IC50 (Zap-70) was over 9.99 µM and the IC50 (Lck) was 7.77 to 9.99 µM.

With `COc1cc(Nc2ncnc(Nc3ccc(C)cc3)n2)cc(OC)c1OC` [Compound 930] the IC50 (Flt-1) was 6.53 to 9.53 µM, the IC50 (ErbB2) was 1.09 to 6.53 µM and the IC50 (AKT) was over 12.2 µM. The IC50 (PDGFRB) was under 1.09 µM, the IC50 (Tek) was over 12.2 µM and the IC50 (Ret-1) was 1.09 to 6.53 µM. It also gave an IC50 (Lyn) of under 1.09 µM, an IC50 (Kdr) of under 1.09 µM and an IC50 (FGFR1) of 6.53 to 9.53 µM. It also gave an IC50 (Zap-70) of over 12.2 µM and an IC50 (Lck) of 1.09 to 6.53 µM.

Compound `COc1ccc(Nc2ncnc(Nc3cc(OC)c(OC)c(OC)c3)n2)cc1O` [Compound 931] has an IC50 (Flt-1) of under 1 µM, an IC50 (ErbB2) of 1 to 6.01 µM and an IC50 (AKT) of over 11.3 µM. It also gave an IC50 (PDGFRB) of under 1 µM, an IC50 (Tek) of 8.76 to 11.3 µM and an IC50 (Ret-1) of under 1 µM. The IC50 (Lyn) was under 1 µM, the IC50 (Kdr) was under 1 µM and the IC50 (FGFR1) was 1 to 6.01 µM. The IC50 (Zap-70) was over 11.3 µM and the IC50 (Lck) was 1 to 6.01 µM.
